Article PMC6435570, “Zafirlukast Is a Dual Modulator of Human Soluble Epoxide Hydrolase and Peroxisome Proliferator-Activated Receptor γ” (Frontiers in Pharmacology, 2019)

What was measured:
recombinant human sEH = molecular target: T1, recombinant human sEH (Homo sapiens, UniProt P34913); test: Recombinant sEH activity (PHOME fluorescence assay); type: biochemical; conditions: PHOME 50 μM, 30 min preincubation at RT, read-out: sEH rec. IC50
T1 sequence (P34913 1-555): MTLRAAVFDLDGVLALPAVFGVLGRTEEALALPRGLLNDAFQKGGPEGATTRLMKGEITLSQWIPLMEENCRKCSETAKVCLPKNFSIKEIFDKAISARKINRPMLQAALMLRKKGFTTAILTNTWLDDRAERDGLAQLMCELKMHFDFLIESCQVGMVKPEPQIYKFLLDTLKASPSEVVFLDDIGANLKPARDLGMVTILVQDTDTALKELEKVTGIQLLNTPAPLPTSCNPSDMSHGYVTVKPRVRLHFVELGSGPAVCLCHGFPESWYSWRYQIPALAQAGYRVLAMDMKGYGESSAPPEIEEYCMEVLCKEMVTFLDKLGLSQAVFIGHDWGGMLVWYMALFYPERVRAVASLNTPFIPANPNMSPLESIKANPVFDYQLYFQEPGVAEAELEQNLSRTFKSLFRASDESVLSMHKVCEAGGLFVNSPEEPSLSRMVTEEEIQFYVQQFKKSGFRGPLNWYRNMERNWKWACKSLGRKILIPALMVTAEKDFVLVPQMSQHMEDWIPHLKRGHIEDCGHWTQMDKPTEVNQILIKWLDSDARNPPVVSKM
Experimental: For determination of IC50 values of recombinant human sEH a 96-well fluorescence-based assay system was used as described before ([Blöcher et al., 2016a]). In brief, non-fluorescent PHOME (3 phenylcyano-(6-methoxy-2-naphthalenyl)methyl ester 2-oxiraneacetic acid, Cayman Chemicals, Ann Arbor, MI, United States) was used as substrate, which is hydrolyzed by sEH to the fluorescent 6-methoxynaphthaldehyde ([Rau et al., 2006]). The formation of the fluorescent product was measured (λem = 330 nm, λex = 465 nm) by an Infinite F200 Pro plate reader (Tecan Group Ltd., Männedorf, Switzerland). For that purpose, 2 μg recombinant human sEH in 100 μl bis-Tris buffer (pH 7, 0.1 mg/mL BSA, 0.01% Triton-X 100) was applied per well. This protein solution was then incubated with different concentrations of the test compounds for 30 min at RT. After this, 10 μL of the substrate were added (final concentration 50 μM). The formation of 6-methoxynaphthaldehyde was monitored for 30 min. All concentrations were tested in triplicate wells.

[1] = molecular target: T2, human PPARα ligand binding domain (Homo sapiens, UniProt Q07869); test: PPAR reporter gene assay (Gal4 hybrid, PPARα); type: cell-based; conditions: HEK-293T, reference GW7647 1 μM, tested up to 10 μM
T2 construct: expressed in transfected cells; host or cells: HEK-293T
T2 sequence (Q07869 239-466 limits assumed): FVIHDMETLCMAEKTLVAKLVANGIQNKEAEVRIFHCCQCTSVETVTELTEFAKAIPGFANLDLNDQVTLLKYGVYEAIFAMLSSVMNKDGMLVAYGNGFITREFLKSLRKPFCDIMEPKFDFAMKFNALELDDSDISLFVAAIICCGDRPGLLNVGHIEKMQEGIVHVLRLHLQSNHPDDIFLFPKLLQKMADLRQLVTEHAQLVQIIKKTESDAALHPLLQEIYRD
Experimental: (§2) HEK-293T cells were seeded in 96-well plates (2.5 × 10^4 cells/well) and were allowed to adhere overnight. Before transfection, medium was changed to Opti-MEM without supplements. Transient plasmid transfection was carried out using Lipofectamine LTX reagent (Invitrogen, Carlsbad, CA, United States) according to the manufacturer’s protocol with pFR-Luc (Stratagene, La Jolla, CA, United States), pRL-SV40 (Promega, Fitchburg, MA, United States) and pFA-CMV-PPAR-LBD ([Rau et al., 2006]). 5 h after transfection, medium was changed to Opti-MEM supplemented with penicillin (100 U/mL) and streptomycin (100 μg/mL), now additionally containing 0.1% DMSO and the respective test compound or 0.1% DMSO alone as untreated control. Each concentration was tested in triplicates and each experiment was repeated independently at least four times. Following overnight (12–16 h) incubation with the test compounds, cells were assayed for luciferase activity using the Dual-Glo^TM Luciferase Assay System (Promega, Fitchburg, MA, United States) according to the manufacturer’s protocol. Luminescence was measured with an Infinite M200 luminometer (Tecan Group Ltd., Männedorf, Switzerland). Normalization of transfection efficiency and cell growth was done by division of firefly luciferase data by renilla luciferase data and multiplying the value by 1000 resulting in relative light units (RLU). Fold activation was obtained by dividing the mean RLU of a test compound at a respective concentration by the mean RLU of untreated control. Relative activation was obtained by dividing the fold activation of a test compound at a respective concentration by the fold activation of the respective PPARα, γ or δ full agonist GW-7647, pioglitazone or L165,041 at 1 μM. EC50 and standard deviation were calculated with the mean relative activation values of at least four independent experiments by SigmaPlot 10.0 (Systat Software GmbH, Erkrath, Germany) using a four parameter logistic regression. […]

sEH (HEP-G2) = molecular target: T3, sEH (HEP-G2) (Homo sapiens, UniProt P34913); test: sEH activity in HEP-G2 cell lysates (14(15)-EET-d11 to DHET-d11, LC-MS/MS); type: biochemical; conditions: HEP-G2 cell homogenate, (±)14(15)-EET-d11 substrate, DHET formation by LC-MS/MS
T3 construct: 1 μg of total cell homogenate diluted in 100 μl of PBS; endogenous in cells; host or cells: HEP-G2
T3 sequence (P34913 1-555): T1 sequence (P34913 1-555)
Experimental: Quantification of cellular sEH metabolic activity was performed as described by [Zha et al. (2014)]. For this, HEP-G2 cells were harvested, washed twice with PBS and sonicated in PBS for disruption of cell integrity. Then, 1 μg of total cell homogenate diluted in 100 μl of PBS containing 0.1 mg/ml BSA was incubated with the compounds or vehicle for 15 min at 37°C. After this, 25 ng (±)14(15)-EET-d11 (Cayman Chemical, Ann Arbor, MI, United States) were added per sample and the incubation was continued for additional 10 min at 37°C. A blank was performed using PBS (containing 0,1 mg/mL BSA). The reactions were stopped by adding 100 μL of ice cold methanol. After centrifugation (2000 rpm, 4°C, 5 min), supernatants were analyzed by LC-MS/MS and the amounts of (±)14(15)-EET-d11 and the corresponding (±)14(15)-DHET-d11 were determined.
14(15)-EET-d11 and 14(15)-DHET-d11 content of the extracted samples were analyzed employing liquid chromatography tandem mass spectroscopy (LC-MS/MS). The LC/MS-MS system comprised an API 5500 QTrap (Sciex, Darmstadt, Germany), equipped with a Turbo-V-source operating in negative ESI mode, an Agilent 1200 binary HPLC pump and degasser (Agilent, Waldbronn, Germany) and an HTC Pal autosampler (Chromtech, Idstein, Germany) fitted with a 25 μL LEAP syringe (Axel Semrau GmbH, Sprockhövel, Germany). High purity nitrogen for the mass spectrometer was produced by a NGM 22-LC/MS nitrogen generator (cmc Instruments, Eschborn, Germany). All substances were obtained from Cayman Chemical, Ann Arbor, MI, United States. Stock solutions with 2,500 ng/mL of both analytes were prepared in methanol. Working standards were obtained by further dilution with a concentration range of 0.1–250 ng/mL for 14(15)-EET-d11 and 14(15)-DHET-d11. Sample extraction was performed with liquid–liquid-extraction. Therefore, 150 μL of matrix homogenates were gently mixed with 20 μL of internal standard [14(15)-EET and 14(15)-DHET all with a concentration of 100 ng/ml in methanol], and were extracted twice with 600 μL of ethyl acetate. Samples for standard curve and quality control were prepared similarly, instead of 150 μL of matrix homogenates, 150 μL PBS were added. Further 20 μL methanol, 20 μL working standard and 20 μL internal standard were added. The organic phase was removed at a temperature of 45°C under a gentle stream of nitrogen. The residues were reconstituted with 50 μL of methanol/water/(50:50, v/v), centrifuged for 2 min at 10,000 g and then transferred to glass vials (Macherey-Nagel, Düren, Germany) prior to injection into the LC-MS/MS system. For the chromatographic separation a Gemini NX C18 column and pre-column were used (150 mm × 2 mm i.d., 5 μm particle size and 110 Å pore size from Phenomenex, Aschaffenburg, Germany). A linear gradient was employed at a flow rate of 0.5 mL/min mobile phase with a total run time of 17.5 min. Mobile phase was A water/ammonia (100:0.05, v/v) and B acetonitrile/ammonia (100:0.05, v/v). The gradient started from 85% A to 10% within 12 min. This was held for 1 min at 10% A. Within 0.5 min the mobile phase shifted back to 85% A and was held for 3.5 min to equilibrate the column for the next sample. The injection volume of samples was 20 μL. Quantification was performed with Analyst Software V 1.5.1 (Sciex, Darmstadt, Germany) employing the internal standard method (isotope- dilution mass spectrometry). Ratios of analyte peak area and internal standard area (y-axis) were plotted against concentration (x-axis) and calibration curves were calculated by least square regression with 1/concentration^2 weighting.

[2] = molecular target: T4, human PPARδ ligand binding domain (Homo sapiens, UniProt Q03181); test: PPAR reporter gene assay (Gal4 hybrid, PPARδ); type: cell-based; conditions: HEK-293T, reference L165,041 1 μM, tested up to 10 μM
T4 construct: expressed in transfected cells; host or cells: HEK-293T
T4 sequence (Q03181 211-439 limits assumed): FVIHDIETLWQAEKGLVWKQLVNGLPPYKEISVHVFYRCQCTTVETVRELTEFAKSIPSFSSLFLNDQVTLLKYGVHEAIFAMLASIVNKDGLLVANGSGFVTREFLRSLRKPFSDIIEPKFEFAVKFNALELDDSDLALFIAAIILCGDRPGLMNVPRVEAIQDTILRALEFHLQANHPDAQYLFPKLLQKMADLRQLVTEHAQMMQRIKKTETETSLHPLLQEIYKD
Experimental: as §2

CysLT1R = conditions: Table 2 comparison column; no method, no reference given; cited from earlier work
3T3-L1 cells = test: 3T3-L1 adipocyte differentiation, Oil Red O lipid accumulation; type: cell-based, murine; conditions: differentiation cocktail plus zafirlukast or montelukast 1, 5, 10 μM or rosiglitazone 2 μM; 14 days
Experimental: (§1) 3T3-L1 cells were differentiated into adipocytes for 14 days according to the protocol of [Zebisch et al. (2012)]. For this, cells were seeded in 6-well plates ([…]) and differentiation was induced after 48 h by addition of a differentiation cocktail containing 1 μg/mL insulin, 0.25 μM dexamethasone and 0.5 mM isobutylmethylxanthine (IBMX) in DMEM supplemented with 10% FCS and 1% PS. […] After 2 days, medium was replaced by DMEM supplemented with 10% FCS, 1% PS and 1 μg/mL insulin for 2 more days. Afterwards, cells were kept for lipid droplet accumulation in DMEM containing 10% FCS and 1% PS until day 15. Media were replaced every other day.
Differentiated 3T3-L1 cells were washed with PBS and subsequently fixed for 60 min with formaldehyde (4% in PBS). Afterwards, cells were thoroughly rinsed with 60% isopropanol and incubated with Oil Red O solution (0.3% in 60% isopropanol) for 120 min. This was followed by the removal of the staining solution and thorough rinsing of the cell layer with ultrapure water. Finally, the plates were dried and pictures of the stained cell layers were taken.
For quantification of the accumulated dye, 3T3-L1 cells were seeded in 24-well plates (0.55 × 10^5/well) instead of 6-wells and the differentiation was carried out as described in the section ‘Adipocyte differentiation’. After 14 days of differentiation, cells were fixed and stained as described above. […] 100 μl of dye extract were transferred to a 96-well plate and absorbance was measured (λabs = 510 nm) by an Infinite F200 plate reader (Tecan Group Ltd., Männedorf, Switzerland). […]
As master regulator of adipocyte differentiation in men and mice, PPARγ plays a crucial role in the cell’s commitment to the adipocyte lineage by controlling important functions such as intracellular biosynthesis, transport and accumulation of lipids. […] Upon differentiation, different parameters such as lipid accumulation and PPARγ target gene expression can be assessed to investigate the PPARγ activating potential of the compounds of interest. […]

[3] = test system: PPARγ2 phosphorylation at serine 273; test: TNFα triggered PPARγ Ser273 phosphorylation in 3T3-L1 adipocytes (Western Blot); type: cell-based, murine; conditions: zafirlukast 1 or 10 μM or rosiglitazone 2 μM for 45 min, then TNFα 50 ng/mL 30 min
Experimental: Total 3T3-L1 or HEP-G2 cell lysates were prepared in lysis buffer (20 mM Tris-HCl, pH 7.4, 150 mM NaCl, 2 mM EDTA, 1% Triton X-100, 0.5% NP-40) supplemented with protease and phosphatase inhibitors (PhosSTOP^TM + cOmplete^TM Mini, Roche Diagnostics GmbH, Mannheim, Germany). Protein concentrations were quantified using the Pierce^TM BCA Protein Assay Kit (Thermo Scientific, Waltham, MA, United States). Total protein (30 μg/lane) was separated by SDS-polyacrylamide gel electrophoresis and transferred to nitrocellulose membranes (GE Healthcare Life Sciences, Little Chalfont, United Kingdom). Membranes were blocked with Odyssey blocking reagent (LI-COR Biosciences, Bad Homburg, Germany) for 1 h at room temperature. […] Afterwards, membranes were washed and incubated with fluorescence conjugated secondary antibodies (IRDye, LI-COR Biosciences, Bad Homburg, Germany). […] The density of the immune reactive bands was analyzed using the Image Studio 5.2 software (LI-COR Biosciences, Bad Homburg, Germany).
We induced this post-translational modification by short-term treatment of the differentiated cells with the cytokine TNFα, generating a pro-inflammatory milieu. […] For this, we used an assay system in which the recruitment of the fluorescence-tagged PPARγ coactivator CBP to the PPARγ-LBD was assessed by time-resolved FRET technique in presence and absence of rosiglitazone.

[4] = test system: PPARγ, FABP-4 and CD36 protein in 3T3-L1 adipocytes; test: Protein expression in differentiated 3T3-L1 adipocytes (Western Blot); type: cell-based, murine; conditions: rosiglitazone 2 μM
Experimental: as §1
Total 3T3-L1 or HEP-G2 cell lysates were prepared in lysis buffer (20 mM Tris-HCl, pH 7.4, 150 mM NaCl, 2 mM EDTA, 1% Triton X-100, 0.5% NP-40) supplemented with protease and phosphatase inhibitors (PhosSTOP^TM + cOmplete^TM Mini, Roche Diagnostics GmbH, Mannheim, Germany). Protein concentrations were quantified using the Pierce^TM BCA Protein Assay Kit (Thermo Scientific, Waltham, MA, United States). Total protein (30 μg/lane) was separated by SDS-polyacrylamide gel electrophoresis and transferred to nitrocellulose membranes (GE Healthcare Life Sciences, Little Chalfont, United Kingdom). Membranes were blocked with Odyssey blocking reagent (LI-COR Biosciences, Bad Homburg, Germany) for 1 h at room temperature. Ensuing, membranes were incubated with antibodies against CD36 (EPR6573, Abcam, Cambridge, United Kingdom), PPARγ (E-8, Santa Cruz Biotechnology, Heidelberg, Germany), FABP-4 (C-15, Santa Cruz Biotechnology, Heidelberg, Germany) or PPARγ Ser273 (Bioss Antibodies Inc., Woburn, MA, United States) overnight at 4°C. Afterwards, membranes were washed and incubated with fluorescence conjugated secondary antibodies (IRDye, LI-COR Biosciences, Bad Homburg, Germany). Protein antibody complexes were visualized on the Odyssey Infrared Imaging System (LI-COR Biosciences, Bad Homburg, Germany). β-actin (I-19, goat, polyclonal, Santa Cruz Biotechnology, Heidelberg, Germany) was used as loading control. The density of the immune reactive bands was analyzed using the Image Studio 5.2 software (LI-COR Biosciences, Bad Homburg, Germany).
As master regulator of adipocyte differentiation in men and mice, PPARγ plays a crucial role in the cell’s commitment to the adipocyte lineage by controlling important functions such as intracellular biosynthesis, transport and accumulation of lipids. Murine 3T3-L1 fibroblasts are a well characterized in vitro tool to study PPARγ induced adipocyte differentiation. These cells can be differentiated from fibroblasts into adipocytes by an activation cocktail (0.5 mM IBMX, 1 μg/mL insulin, 0.25 μM dexamethasone) together with the potential PPARγ agonist. Upon differentiation, different parameters such as lipid accumulation and PPARγ target gene expression can be assessed to investigate the PPARγ activating potential of the compounds of interest. […] Rosiglitazone (2 μM) was used as positive control. This was followed by insulin (1 μg/mL) treatment for another 48 h. After this, cells were kept in growth medium for a week to complete the differentiation process and allow intracellular lipid accumulation. Subsequently, the cells were stained with Oil Red O solution to investigate the extent of cytoplasmic lipid droplet accumulation as a measure for cell differentiation.
In addition to mRNA expression, the protein expression levels of the two PPARγ target genes FABP-4 and CD36 in differentiated 3T3-L1 cells after 14 days were investigated. For this, total protein lysates were separated by gel electrophoresis followed by Western Blotting (Figure 3E,F and Supplementary Figures S2A,B).

| IC50 (recombinant human sEH) | PPARα EC50 [1] | IC50 (sEH (HEP-G2)) | PPARδ EC50 [2] | Structure (SMILES) | IC50 (CysLT1R) | Lipid accumulation (Oil Red O staining) (3T3-L1 cells) | TNFα induced phosphorylation of PPARγ2 at serine 273 [3] | PPARγ isoforms γ1 and γ2 protein expression ([4]; 3T3-L1 differentiated with cocktail plus compound) | Protein expression of PPARγ target genes FABP-4 and CD36 ([4]; after 14 days) |
| --- | --- | --- | --- | --- | --- | --- | --- | --- | --- |
| 8.86 ± 0.19 µM | i.a. @ 10 μM | 14.1 µM | i.a. @ 10 μM | O=C(Nc1cccc2c(=O)cc(-c3nnn[nH]3)oc12)c1ccc(OCCCCc2ccccc2)cc1 [Pranlukast, pranlukast] | 4 nM |  |  |  |  |
|  |  |  |  | CN(CCOc1ccc(CC2SC(=O)NC2=O)cc1)c1ccccn1 (stereo not drawn) [rosiglitazone] |  | strong accumulation of lipid droplets | inhibited this phosphorylation, although this effect was not significant | upregulated the protein levels | upregulated the expression of all target genes investigated with high potency |
